Measurements from US12060334B2, “3-substituted phenazine derivatives as antimicrobial agents” (University of Florida Research Foundation, Incorporated, priority 2021, dated 2024).
In brackets after ≈: the same amount, converted by molar mass. Like-named read-outs stand apart in the source and are kept apart here. Marks after values point to notes of the source that are not given here.

Legend:
[1] = system: J774 MΦ; test: Alamar Blue cytotoxicity assay, J774 macrophages; conditions: read-out: J774 MΦ Cytotox. (IC50), 24-h
[2] = system: E. faecalis OG1RF; test: MIC susceptibility assay (broth microdilution); conditions: Enterococcus faecalis, 16 h, read-out: MIC E. faecalis OG1RF
Method: (§1) (MIC values were further supported by spectrophotometric readings at OD600). The concentration range tested for each HP compound during this study was 0.05 to 50 μM. DMSO served as our vehicle and negative control in each microdilution MIC assay. DMSO was serially diluted with a top concentration of 0.5% v/v.

[3] = system: HepG2 cells; test: Alamar Blue cytotoxicity assay, HepG2; conditions: read-out: Hep G2 Cytotox. (IC50), 24-h
[4] = system: MRSA-1707 biofilms; test: Calgary Biofilm Device (CBD) assay; conditions: Staphylococcus aureus, read-out: MRSA-1707 MBC
[5] = system: human red blood cells; test: Hemolysis assay with red blood cells; conditions: human RBCs, 1 hour, 37° C.
Method: Hemolysis assays are used to determine the membrane-lysis activity of a compound, which is of particular interest to this work as membrane-lysing agents (e.g., QACs) can eradicate biofilms.
Cytotoxicity Assay against HEK-293 Cells.^48 The viability of HEK-293 cells was assessed by the MTT assay. The cells were cultured in DMEM medium containing 10% fetal bovine serum and 100 U/mL penicillin and streptomycin. The cells (10^4 cells/well) were seeded onto a 96-well plate and maintained at 37° C. in a humidified incubator under 5% CO2 overnight. […] After incubation at 37° C. for 72 hours, 10 μL of MTT (5 mg/mL) in PBS was added to each well and incubated for 4 hours, followed by the aspiration of the medium. Dimethyl sulfoxide (DMSO, 100 μL) was then added to each well to dissolve the MTT in the wells, and the plate was agitated for 1 hour. The optical density (OD) was measured at 570 nm using a UV/vis microplate spectrophotometer (BioTek). The percent inhibition was calculated as follows: Inhibition (%)=(1−test OD570/non-treated OD570)×100%. The data were analyzed by Origin. Hemolysis Assay with Red Blood Cells. […] The washing was repeated three times with the buffer. In 96-well plate, test compounds were added to the buffer from DMSO stocks. […] The plate was then incubated for 1 hour at 37° C. After incubation, the plate was centrifuged for 5 minutes at 3,500 rpm before 80 μL of the supernatant was transferred to another 96-well plate to obtain an optical density (OD) read at 405 nm. DMSO served as the negative control (0% hemolysis) while Triton X served as the positive control (100% hemolysis) in these experiments. The percent hemolysis was calculated as (OD405 of the compound treated RBCs−OD405 DMSO control)/(OD405 Triton X treated RBCs−OD405 buffer) from three independent experiments.

[6] = system: E. faecalis OG1RF biofilms; test: Calgary Biofilm Device (CBD) assay; conditions: Enterococcus faecalis, OG1RFBIOFILMS, read-out: E.faecalis OG1RF MBC
[7] = system: MRSE 35984; test: MIC susceptibility assay (broth microdilution); conditions: 16 h; for MIC: Staphylococcus epidermidis, MRSE, read-out: MIC MRSE 35984
Method: as §1

[8] = system: VRE 700221; test: MIC susceptibility assay (broth microdilution); conditions: 16 h; for MIC: Enterococcus, VRE, read-out: MIC VRE 700221
Method: The concentration range tested for each HP compound during this study was 0.05 to 50 μM. DMSO served as our vehicle and negative control in each microdilution MIC assay. DMSO was serially diluted with a top concentration of 0.5% v/v.

[9] = system: Mtb CDC1551; test: microbe, parasite or virus in culture; type: cell-based, Mycobacterium tuberculosis
[10] = system: MRSE 35984 biofilms; test: Calgary Biofilm Device (CBD) assay; conditions: Staphylococcus epidermidis, MRSE, read-out: MRSE 35984 MBC
[11] = system: MRSA-1707; test: MIC susceptibility assay (broth microdilution); conditions: 16 h; for MIC: Staphylococcus aureus, MRSA, read-out: MIC MRSA-1707, planktonic growth inhibition, 16 h, 37° C.
Method: as §1

[12] = system: MRSA-44; test: MIC susceptibility assay (broth microdilution); conditions: Staphylococcus aureus, 16 h, read-out: MIC MRSA-44
Method: as §1

[13] = system: HeLa cells; test: LDH release assay for HeLa cytotoxicity; conditions: read-out: HeLa Cell Cytotox. (IC50), 24-h, tested at 25, 50 and 100 μM
[14] = system: VRE 700221 biofilms; test: Calgary Biofilm Device (CBD) assay; conditions: Enterococcus, read-out: VRE 700221 MBC
[15] = system: S. aureus 147; test: MIC assay against clinical isolate; type: cell-based
[16] = system: S. aureus 129; test: MIC assay against clinical isolate; type: cell-based; conditions: Staphylococcus aureus
[17] = system: S. aureus 156; test: MIC assay against clinical isolate; type: cell-based; conditions: Staphylococcus aureus, 156, read-out: MIC S. aureus 156
[18] = system: MRSA 1; test: MIC assay against clinical isolate; type: cell-based, S. aureus; conditions: Staphylococcus aureus
[19] = system: S. aureus 138; test: MIC assay against clinical isolate; type: cell-based; conditions: Staphylococcus aureus
[20] = system: MRSA 2; test: MIC assay against clinical isolate; type: cell-based, S. aureus; conditions: Staphylococcus aureus
[21] = system: MRSA, MRSE and VRE strains; test: MIC assays, summary statements over several Gram-positive strains; conditions: read-out: MIC against MRSA, MRSE and VRE strains
Method: as §1

[22] = system: Mtb H37Ra; test: MIC assay for Mtb H37Ra; conditions: seven days, 37° C.
[23] = Mycobacterium tuberculosis, CDC1551, 120 h
[24] = planktonic growth inhibition, 37° C.

| Structure (SMILES) | IC50 [1] [µM] | MIC [2] [µM] | IC50 [3] [µM] | MBC [4] [µM] | % Hemolysis at 200 μM [5] [%] | MIC [9, 23] [µM] | MBC [10] [µM] | MIC [11] [µM] | further results |
| --- | --- | --- | --- | --- | --- | --- | --- | --- | --- |
| Cc1c(Br)ccc2nc3c(O)c(Br)c(Cl)c(Br)c3nc12 [Compound 31, 2,4,7-Tribromo-3-chloro-6-methylphenazin-1-ol] | > 200 | 0.08 (≈ 0.0385 µg/mL) | > 200 | 75 (≈ 36.1 µg/mL) | 27 | 0.88 (≈ 0.424 µg/mL) | – | – | MBC [6]: 1.56 µM (≈ 0.751 µg/mL); MIC [7]: 0.1 µM (≈ 0.0481 µg/mL); MIC [8]: ≤ 0.05 µM; MIC [9]: 0.88 µM (≈ 0.424 µg/mL) |
| Oc1c(Br)c(Cl)c(Br)c2nc3ccc(F)cc3nc12 [Compound 33, 2,4-Dibromo-3-chloro-8-fluorophenazin-1-ol] | > 200 | – | > 200 | 12.5 (≈ 5.08 µg/mL) | ≤1 | 1.71 (≈ 0.695 µg/mL) | 12.5 (≈ 5.08 µg/mL) | 0.15 (≈ 0.061 µg/mL) | MIC MRSA-1707 [11, 24]: 0.15 µM (≈ 0.061 µg/mL); MIC [12]: 0.2 µM (≈ 0.0813 µg/mL); IC50 [13]: > 25 µM |
| Oc1c(Br)c(Cl)c(Br)c2nc3ccc(I)cc3nc12 [Compound 37, 2,4-Dibromo-3-chloro-8-iodophenazin-1-ol] | – | 1.56 (≈ 0.802 µg/mL) | – | 12.5 (≈ 6.43 µg/mL) | 3.0 | – | 6.25 (≈ 3.21 µg/mL) | 0.15 (≈ 0.0772 µg/mL) | MIC [7]: 0.3 µM (≈ 0.154 µg/mL); MBC [14]: 4.69 µM (≈ 2.41 µg/mL) |
| CCSc1c(Br)c(O)c2nc3cccc(C)c3nc2c1Br [Compound 45, 2,4-Dibromo-3-(ethylthio)-6-methylphenazin-1-ol] | > 100 | 0.78 (≈ 0.334 µg/mL) | > 200 | 50 (≈ 21.4 µg/mL) | 5.7 | 1.69 (≈ 0.724 µg/mL) | 12.5 (≈ 5.35 µg/mL) | – | MIC ([15]; Staphylococcus aureus, 147, clinical isolate, read-out: MIC S. aureus 147): 0.47 µM (≈ 0.201 µg/mL); MIC [16]: 0.47 µM (≈ 0.201 µg/mL); MIC [17]: 0.47 µM (≈ 0.201 µg/mL); MIC [18]: 0.31 µM (≈ 0.133 µg/mL); MIC [19]: 0.47 µM (≈ 0.201 µg/mL); MIC [20]: 0.63 µM (≈ 0.27 µg/mL); MIC MRSE 35984 [7, 24]: 0.30^a μM |
| Cc1cccc2nc3c(O)c(Br)c(SCCO)c(Br)c3nc12 [Compound 46, 2,4-Dibromo-3-((2-hydroxyethyl)thio)-6-methylphenazin-1-ol] | – | – | – | – | – | – | – | 6.25 (≈ 2.78 µg/mL) | MIC [21]: 2.35 to 12.5 µM (≈ 1.04 to 5.55 µg/mL); MIC [12]: 6.25 µM (≈ 2.78 µg/mL) |
| CC(=O)NC[C@H]1CN(c2ccc(N3CCOCC3)c(F)c2)C(=O)O1 [Linezolid, reference compound] | – | – | – | 31.3 (≈ 10.6 µg/mL) | – | – | – | 12.5 (≈ 4.22 µg/mL) | – |
| [H]/N=C(/N)N[C@H]1[C@H](O)[C@@H](O)[C@H](O[C@@H]2O[C@@H](C)[C@](O)(C=O)[C@H]2O[C@@H]2O[C@@H](CO)[C@H](O)[C@@H](O)[C@@H]2NC)[C@@H](N/C(N)=N\[H])[C@@H]1O [Streptomycin, reference compound] | – | – | – | – | – | – | – | – | MIC Mtb H37Ra [22]: 1.32 µM (≈ 0.768 µg/mL) |
| CN[C@H](CC(C)C)C(=O)N[C@H]1C(=O)N[C@@H](CC(N)=O)C(=O)N[C@H]2C(=O)N[C@H]3C(=O)N[C@H](C(=O)N[C@H](C(=O)O)c4cc(O)cc(O)c4-c4cc3ccc4O)[C@H](O)c3ccc(c(Cl)c3)Oc3cc2cc(c3O[C@@H]2O[C@H](CO)[C@@H](O)[C@H](O)[C@H]2O[C@H]2C[C@](C)(N)[C@H](O)[C@H](C)O2)Oc2ccc(cc2Cl)[C@H]1O [Vancomycin, reference compound] | – | – | – | – | – | – | 3 (≈ 4.35 µg/mL) | – | MIC ([15]; Staphylococcus aureus, 147, read-out: MIC S. aureus 147): 0.59 µM (≈ 0.855 µg/mL); MBC [6]: 11.7 µM (≈ 17 µg/mL); MIC [8]: > 100 µM; MIC VRE 700221 [8, 24]: >100 µM; MBC [14]: 750 µM (≈ 1090 µg/mL) |
